Experiments:
Test in all cases: biochemical
Set-up in all cases: Cerep/Eurofins selectivity panel, receptors, channels and transporters, per cent inhibition at 10 uM
Settings in all cases: read-out: % Inhibition
Histamine H2 = molecular target: T1, Histamine H2 (Homo sapiens, UniProt P25021)
T1 construct: gene HRH2

Estrogen ERβ = molecular target: T2, Estrogen ERβ (Homo sapiens, UniProt Q92731)
T2 construct: gene ESR2

Muscarinic M1 = molecular target: T3, Muscarinic M1 (Homo sapiens, UniProt P11229)
T3 construct: gene CHRM1

Muscarinic M4 = molecular target: T4, Muscarinic M4 (Homo sapiens, UniProt P08173)
T4 construct: gene CHRM4
T4 sequence (P08173 whole entry): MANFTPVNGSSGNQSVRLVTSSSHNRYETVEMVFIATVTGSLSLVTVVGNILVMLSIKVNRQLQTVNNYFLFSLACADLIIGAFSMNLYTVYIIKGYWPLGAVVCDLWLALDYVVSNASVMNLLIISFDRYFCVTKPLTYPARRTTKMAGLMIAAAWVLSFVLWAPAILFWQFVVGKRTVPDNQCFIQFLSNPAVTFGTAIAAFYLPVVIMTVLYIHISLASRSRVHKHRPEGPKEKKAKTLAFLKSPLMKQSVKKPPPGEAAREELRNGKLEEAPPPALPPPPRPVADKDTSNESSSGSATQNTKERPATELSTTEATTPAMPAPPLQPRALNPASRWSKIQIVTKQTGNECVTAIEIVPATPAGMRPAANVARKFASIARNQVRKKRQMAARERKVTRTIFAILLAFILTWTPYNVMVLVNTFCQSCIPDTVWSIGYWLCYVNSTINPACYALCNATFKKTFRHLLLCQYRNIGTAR

Dopamine D4.2 = molecular target: T5, Dopamine D4.2 (Homo sapiens, UniProt P21917)
T5 construct: gene DRD4; D4.2

Muscarinic M2 = molecular target: T6, Muscarinic M2 (Homo sapiens, UniProt P08172)
T6 construct: gene CHRM2
T6 sequence (P08172 whole entry): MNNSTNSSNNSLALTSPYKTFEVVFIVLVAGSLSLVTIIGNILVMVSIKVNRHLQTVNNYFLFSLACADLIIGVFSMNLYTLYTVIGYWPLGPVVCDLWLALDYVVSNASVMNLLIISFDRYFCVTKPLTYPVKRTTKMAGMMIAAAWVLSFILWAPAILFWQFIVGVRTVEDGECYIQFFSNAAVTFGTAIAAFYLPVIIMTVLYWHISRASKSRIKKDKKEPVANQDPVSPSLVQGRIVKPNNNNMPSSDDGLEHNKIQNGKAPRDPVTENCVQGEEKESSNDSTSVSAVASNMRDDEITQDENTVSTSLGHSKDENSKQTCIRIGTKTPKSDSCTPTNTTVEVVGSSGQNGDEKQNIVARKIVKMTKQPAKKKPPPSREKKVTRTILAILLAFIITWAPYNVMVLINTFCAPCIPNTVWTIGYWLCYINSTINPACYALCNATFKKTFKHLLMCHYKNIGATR

Cholecystokinin CCK2 = molecular target: T7, Cholecystokinin CCK2 (Homo sapiens, UniProt P32239)
T7 construct: gene CCKBR

Cholecystokinin CCK1 = molecular target: T8, Cholecystokinin CCK1 (Homo sapiens, UniProt P32238)
T8 construct: gene CCKAR
T8 sequence (P32238 whole entry): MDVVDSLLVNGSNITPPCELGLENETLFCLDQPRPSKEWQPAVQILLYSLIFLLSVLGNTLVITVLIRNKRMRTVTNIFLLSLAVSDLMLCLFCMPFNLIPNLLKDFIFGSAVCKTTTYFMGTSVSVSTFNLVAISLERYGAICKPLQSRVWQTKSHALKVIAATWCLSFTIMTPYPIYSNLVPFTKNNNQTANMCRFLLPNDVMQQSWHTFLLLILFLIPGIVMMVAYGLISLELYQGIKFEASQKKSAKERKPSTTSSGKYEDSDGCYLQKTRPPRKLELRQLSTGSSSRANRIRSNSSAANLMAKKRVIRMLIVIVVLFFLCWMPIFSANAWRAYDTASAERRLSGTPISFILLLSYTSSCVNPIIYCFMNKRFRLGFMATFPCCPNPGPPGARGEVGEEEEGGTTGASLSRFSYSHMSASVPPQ

[1] = molecular target: T9, Transporter, Serotonin (SERT) (Homo sapiens, UniProt P31645)
T9 construct: gene SLC6A4

Bradykinin B1 = molecular target: T10, Bradykinin B1 (Homo sapiens, UniProt P46663)
T10 construct: gene BDKRB1
T10 sequence (P46663 whole entry): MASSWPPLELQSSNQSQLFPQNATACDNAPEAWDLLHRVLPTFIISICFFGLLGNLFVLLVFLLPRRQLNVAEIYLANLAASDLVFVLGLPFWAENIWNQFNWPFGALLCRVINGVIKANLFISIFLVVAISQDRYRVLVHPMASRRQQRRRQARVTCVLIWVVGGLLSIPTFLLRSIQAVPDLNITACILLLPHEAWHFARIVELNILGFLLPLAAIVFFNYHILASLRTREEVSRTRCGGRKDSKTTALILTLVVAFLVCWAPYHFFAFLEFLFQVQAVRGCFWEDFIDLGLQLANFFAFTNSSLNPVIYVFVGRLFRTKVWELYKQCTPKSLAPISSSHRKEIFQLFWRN

Dopamine D1 = molecular target: T11, Dopamine D1 (Homo sapiens, UniProt P21728)
T11 construct: gene DRD1

Cannabinoid CB1 = molecular target: T12, Cannabinoid CB1 (Homo sapiens, UniProt P21554)
T12 construct: gene CNR1
T12 sequence (P21554 whole entry): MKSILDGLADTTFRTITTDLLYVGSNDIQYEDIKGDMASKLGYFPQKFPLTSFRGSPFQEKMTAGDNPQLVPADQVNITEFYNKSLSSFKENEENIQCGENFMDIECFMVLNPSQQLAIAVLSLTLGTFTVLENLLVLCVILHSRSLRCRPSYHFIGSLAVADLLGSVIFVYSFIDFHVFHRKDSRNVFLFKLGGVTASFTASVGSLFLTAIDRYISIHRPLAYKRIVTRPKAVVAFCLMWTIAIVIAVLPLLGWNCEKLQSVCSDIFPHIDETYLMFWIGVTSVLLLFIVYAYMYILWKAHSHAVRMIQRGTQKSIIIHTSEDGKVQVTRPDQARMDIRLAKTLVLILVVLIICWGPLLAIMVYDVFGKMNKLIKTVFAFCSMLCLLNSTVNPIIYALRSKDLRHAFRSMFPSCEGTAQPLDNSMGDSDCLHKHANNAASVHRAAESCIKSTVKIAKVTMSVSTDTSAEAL

AdenosineA2B = molecular target: T13, AdenosineA2B (Homo sapiens, UniProt P29275)
T13 construct: gene ADORA2B

Opiate κ(OP2, KOP) = molecular target: T14, Opiate κ(OP2, KOP) (Homo sapiens, UniProt P41145)
T14 construct: gene OPRK1
T14 sequence (P41145 whole entry): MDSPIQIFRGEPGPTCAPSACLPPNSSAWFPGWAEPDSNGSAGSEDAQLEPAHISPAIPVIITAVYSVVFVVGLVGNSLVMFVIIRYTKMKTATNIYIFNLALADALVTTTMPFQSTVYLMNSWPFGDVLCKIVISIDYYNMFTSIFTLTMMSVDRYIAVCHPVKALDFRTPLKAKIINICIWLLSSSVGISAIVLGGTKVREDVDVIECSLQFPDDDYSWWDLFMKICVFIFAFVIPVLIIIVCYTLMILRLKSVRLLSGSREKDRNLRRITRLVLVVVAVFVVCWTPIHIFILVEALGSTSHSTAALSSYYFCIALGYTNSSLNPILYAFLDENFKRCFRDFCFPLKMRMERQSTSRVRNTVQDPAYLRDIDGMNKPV

Adenosine A3 = molecular target: T15, Adenosine A3 (Homo sapiens, UniProt P0DMS8)
T15 construct: gene ADORA3
T15 sequence (P0DMS8 whole entry): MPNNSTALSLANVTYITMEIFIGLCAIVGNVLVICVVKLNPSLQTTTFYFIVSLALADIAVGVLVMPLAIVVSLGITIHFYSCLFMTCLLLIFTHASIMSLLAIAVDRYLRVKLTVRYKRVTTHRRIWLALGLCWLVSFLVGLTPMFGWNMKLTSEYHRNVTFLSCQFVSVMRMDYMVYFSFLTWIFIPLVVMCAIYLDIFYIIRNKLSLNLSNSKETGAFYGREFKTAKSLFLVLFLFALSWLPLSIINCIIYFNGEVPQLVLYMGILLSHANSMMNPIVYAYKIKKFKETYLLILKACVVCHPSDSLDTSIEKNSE

Adrenergic β3 = molecular target: T16, Adrenergic β3 (Homo sapiens, UniProt P13945)
T16 construct: gene ADRB3

Estrogen Erα = molecular target: T17, Estrogen Erα (Homo sapiens, UniProt P03372)
T17 construct: gene ESR1
T17 sequence (P03372 whole entry): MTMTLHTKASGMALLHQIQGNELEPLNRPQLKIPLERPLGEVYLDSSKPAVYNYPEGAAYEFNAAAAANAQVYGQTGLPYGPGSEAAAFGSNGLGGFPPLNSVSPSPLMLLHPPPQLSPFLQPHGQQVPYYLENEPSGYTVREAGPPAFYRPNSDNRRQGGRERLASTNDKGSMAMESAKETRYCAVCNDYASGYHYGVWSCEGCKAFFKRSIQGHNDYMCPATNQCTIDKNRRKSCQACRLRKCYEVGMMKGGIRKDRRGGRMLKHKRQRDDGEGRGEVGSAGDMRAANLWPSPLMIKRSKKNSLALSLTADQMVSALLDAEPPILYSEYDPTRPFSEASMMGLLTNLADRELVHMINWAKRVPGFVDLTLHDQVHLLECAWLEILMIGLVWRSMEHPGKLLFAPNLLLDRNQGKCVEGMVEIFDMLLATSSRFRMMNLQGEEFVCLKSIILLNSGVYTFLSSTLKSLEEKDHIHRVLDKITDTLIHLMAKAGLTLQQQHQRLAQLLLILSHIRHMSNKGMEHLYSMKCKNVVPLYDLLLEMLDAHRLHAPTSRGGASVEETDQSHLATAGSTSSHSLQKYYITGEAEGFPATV

Adrenergic β2 = molecular target: T18, Adrenergic β2 (Homo sapiens, UniProt P07550)
T18 construct: gene ADRB2

Anaphylatoxin C5a = molecular target: T19, Anaphylatoxin C5a (Homo sapiens, UniProt P21730)
T19 construct: gene C5AR1
T19 sequence (P21730 whole entry): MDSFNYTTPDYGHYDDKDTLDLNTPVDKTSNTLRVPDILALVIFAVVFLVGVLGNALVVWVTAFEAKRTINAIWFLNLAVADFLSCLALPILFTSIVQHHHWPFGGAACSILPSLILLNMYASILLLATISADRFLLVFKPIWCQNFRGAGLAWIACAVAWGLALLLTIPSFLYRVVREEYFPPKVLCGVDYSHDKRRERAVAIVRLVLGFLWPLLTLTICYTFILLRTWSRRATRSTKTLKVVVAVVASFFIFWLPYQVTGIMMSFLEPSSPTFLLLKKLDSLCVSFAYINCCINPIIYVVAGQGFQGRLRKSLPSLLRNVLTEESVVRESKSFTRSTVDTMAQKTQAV

T1 sequence (P25021 whole entry): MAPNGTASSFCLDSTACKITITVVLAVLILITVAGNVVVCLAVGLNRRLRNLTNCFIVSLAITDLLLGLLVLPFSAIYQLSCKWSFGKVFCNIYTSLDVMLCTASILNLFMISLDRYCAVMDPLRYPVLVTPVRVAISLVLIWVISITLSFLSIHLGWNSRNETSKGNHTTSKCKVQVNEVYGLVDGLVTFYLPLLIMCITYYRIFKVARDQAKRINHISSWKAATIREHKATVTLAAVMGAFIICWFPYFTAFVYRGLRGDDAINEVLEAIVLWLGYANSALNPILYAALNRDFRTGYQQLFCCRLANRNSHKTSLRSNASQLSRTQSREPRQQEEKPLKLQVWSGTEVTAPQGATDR
T2 sequence (Q92731 whole entry): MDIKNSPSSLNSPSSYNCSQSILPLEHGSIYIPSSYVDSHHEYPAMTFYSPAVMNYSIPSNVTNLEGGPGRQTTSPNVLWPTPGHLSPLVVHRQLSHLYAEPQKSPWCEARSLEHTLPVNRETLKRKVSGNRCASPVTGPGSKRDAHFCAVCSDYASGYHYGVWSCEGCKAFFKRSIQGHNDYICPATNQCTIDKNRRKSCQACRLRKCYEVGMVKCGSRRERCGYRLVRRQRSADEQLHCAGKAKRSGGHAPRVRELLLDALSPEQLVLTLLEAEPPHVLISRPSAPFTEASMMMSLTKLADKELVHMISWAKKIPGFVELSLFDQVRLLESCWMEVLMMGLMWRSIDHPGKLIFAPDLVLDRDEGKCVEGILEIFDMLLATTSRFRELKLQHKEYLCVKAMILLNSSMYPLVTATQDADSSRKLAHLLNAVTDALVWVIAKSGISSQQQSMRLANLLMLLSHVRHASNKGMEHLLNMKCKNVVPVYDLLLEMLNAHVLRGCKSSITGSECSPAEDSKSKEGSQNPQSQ

With `C[C@]1(Nc2cnc(C(F)(F)F)cn2)CCC[C@@H]1NC(=O)c1ncccc1-n1nccn1` [CVN45502] the inhibition at 10 µM (Histamine H2) was -14%, the inhibition at 10 µM (Estrogen ERβ) was 4% and the inhibition at 10 µM (Muscarinic M1) was -1%. The inhibition at 10 µM (Muscarinic M4) was 10%, the inhibition at 10 µM (Dopamine D4.2) was -9% and the inhibition at 10 µM (Muscarinic M2) was -7%. For the same compound, the inhibition at 10 µM (Cholecystokinin CCK2) was 5%, the inhibition at 10 µM (Cholecystokinin CCK1) was -18% and the inhibition at 10 µM [1] was 7%. It also gave an inhibition at 10 µM (Bradykinin B1) of 4%, an inhibition at 10 µM (Dopamine D1) of 2% and an inhibition at 10 µM (Cannabinoid CB1) of 8%. It also gave an inhibition at 10 µM (AdenosineA2B) of -7%, an inhibition at 10 µM (Opiate κ(OP2, KOP)) of 3% and an inhibition at 10 µM (Adenosine A3) of -2%. The inhibition at 10 µM (Adrenergic β3) was 0%, the inhibition at 10 µM (Estrogen Erα) was 2% and the inhibition at 10 µM (Adrenergic β2) was 0%. The inhibition at 10 µM (Anaphylatoxin C5a) was 6%.

— publication PMC9684079, “Pharmacological targeting of glutamatergic neurons within the brainstem for weight reduction” (Nature Metabolism, 2022)
